Measurements published in patent EP0711545B1, “Aqueous mild surfactants containing preparations for cosmetic and cleaning use” (priority 1994, dated 1996).

Tested on: Rote Blutkörperchen
Assay: Red blood cell test (RBC test): lysis of blood cells and denaturation of released haemoglobin
Format: cell-based
Description: Fettsäureamidopropylbetaine, abgeleitet von Fettsäuren unterschiedlicher Kettenlängen, werden mit Hilfe einer in-vitro-Methode, dem Rote-Blutkörperchen-Test (RBC), auf ihre physiologische Verträglichkeit untersucht.
Hierbei werden zur Charakterisierung der typischen irritativen Wechselbeziehung von Tensiden mit intakten Zellstrukturen die Zerstörung der Blutzellen durch Lyse und die Denaturierung des freigesetzten Hämoglobins gemessen. Das Ergebnis stellt der Quotient aus Lyse (L) und Denaturierung (D) L/D dar. Je kleiner der L/D-Wert ist, desto reizender ist die Substanz bzw. Formulierung einzustufen.

[1] = Table 1: single betaines, the smaller L/D, the more irritant
[2] = Table 1: single fatty acid amidopropyl betaines
[3] = Table 3: 10 % betaine + 5 % APG in water
[4] = Table 3: 10 % betaine + 5 % LSSDNa in water
[5] = Table 3: 10 % betaine + 5 % NaLSC in water

Row | SMILES | L/D [1] | Denaturierung (D) [2] | Lyse (L) [2] | Denaturierung (D) [3] | L/D [3] | Lyse (L) [3] | Denaturierung (D) [4] | L/D [4] | Lyse (L) [4] | Denaturierung (D) [5] | L/D [5] | Lyse (L) [5]
1 | CCCCCCCCCCCC(=O)NCCC[N+](C)(C)CC(=O)[O-] [C12-Betain] | 8,9 | 17 | 151 | <1 | >100 | 81 | 13 | 3,8 | 49 | 18 | 4,7 | 84
2 | CCCCCCCCCC(=O)NCCC[N+](C)(C)CC(=O)[O-] [C10-Betain] | >> 100 | keine Hämolyse | keine Hämolyse | – | – | – | – | – | – | – | – | –
3 | CCCCCCCCCCCCCC(=O)NCCC[N+](C)(C)CC(=O)[O-] [C14-Betain] | 1,4 | 9,2 | 13 | – | – | – | – | – | – | – | – | –
4 | CCCCCCCCCCCCCCCC(=O)NCCC[N+](C)(C)CC(=O)[O-] [C16-Betain] | 1,0 | 4,4 | 4,4 | – | – | – | – | – | – | – | – | –
5 | CCCCCCCC(=O)NCCC[N+](C)(C)CC(=O)[O-] [C8-Betain] | >> 100 | keine Hämolyse | keine Hämolyse | – | – | – | – | – | – | – | – | –
